For series [1] the following is noted: compared with SB206,553; cited from earlier work.
The subject of series [2] is LNCaP-C4-2 cells. Description: Growth inhibition under serum starvation, LNCaP-C4-2. It is filed as cell-based, human. To be noted: LNCaP-C4-2, serum starvation vs serum. The text has this:
(§1) FIG. 12. […] Data is representative of multiple independent experiments.
(§2) Our tests indicate that SB 242,084 is growth-inhibitory in human PCa cell lines (FIG. 11).

Series [3] concerns Human Prostate cancer cell lines. As to the kind of experiment: Cell viability of human prostate cancer cell lines treated for 72 h. Format: cell-based. To be noted: 72 h treatment, 3 independent experiments. The procedure: FIG. 11. Human Prostate cancer cell lines were treated with SB 242,084 for 72 h. […] Data is the average of 3 independent experiments with error bars indicating SEM.
as §2

For series [4], the system named is TRAMP-C2G cells. Description: Cell viability of TRAMP-C2G stable cell lines (Cell-Titer Fluor, 72 h growth assay). Format: cell-based, mouse. Particulars: 72 h culture; for influence on the effect of MBII-52 or SB 242,084 on cell viability: TRAMP-C2G cells. The procedure: FIG. 10. MBII-52 was stably overexpressed (>60-fold overexpression) in TRAMP-C2G cells from the pSilencer CMV 4.1 vector. Cell viability was measured (n=5, error bars are SEM) after 72 h culture using Cell-Titer Fluor cell viability assay and normalized to scramble-transfected, vehicle-treated control. One-sample t-tests were performed to compare experimental groups with scramble/vehicle control. Two-tailed t-tests were used to compare the two SB 242,084 treatment groups with each other. * indicated p<0.05 for either test. MBII-52 increases cell viability, while SB 242,084 inhibits it.
To test the hypothesis that HB/MBII-52 can activate 5-HT2cR and promote cancer progression stable cell lines were generated from TRAMP C2D and C2G cells that overexpress MBII-52 from pSilencer 4.1 CMV vector along with control cells expressing a scrambled RNA that has no homology to the mouse or human genome.
Numerous downstream pathways activated by 5-HT2cR have been studied in neuronal cell lines with a focus on neurological development and disease. The pathways relevant to this disclosure are Erk, PI3-K/Akt and RhoA (36,39). Each has previously been studied and targeted in PCa and other cancers. Activation of these pathways during PCa progression or in vitro can directly propagate a transition to malignancy. For example, Erk upregulates hypoxia inducible factor 1 alpha (HIF1α) and therefore vascular endothelial growth factor (Vegf) in response to hypoxia in rats (40). Vegf secretion also appears to be regulated by Erk in LNCaP cell lines (41). Erk is also able to transactivate the androgen receptor (AR) independent of androgen, by phosphorylating steroid receptor co-activator-1 (SRC-1), which then binds AR resulting in ligand-independent activation of AR. Therefore, Erk directly contributes to androgen-independence (41). […] Indeed, stable cell lines overexpressing MBII-52 appeared more proliferative then scramble control stable cell lines in a 72 h growth assay, after which viability was measured using Cell-Titer Fluor Assay (n=5) (FIG. 10).

Series [5] concerns the target T1, 5-HT2cR (Homo sapiens, UniProt P28335).
T1 sequence (P28335 33-458): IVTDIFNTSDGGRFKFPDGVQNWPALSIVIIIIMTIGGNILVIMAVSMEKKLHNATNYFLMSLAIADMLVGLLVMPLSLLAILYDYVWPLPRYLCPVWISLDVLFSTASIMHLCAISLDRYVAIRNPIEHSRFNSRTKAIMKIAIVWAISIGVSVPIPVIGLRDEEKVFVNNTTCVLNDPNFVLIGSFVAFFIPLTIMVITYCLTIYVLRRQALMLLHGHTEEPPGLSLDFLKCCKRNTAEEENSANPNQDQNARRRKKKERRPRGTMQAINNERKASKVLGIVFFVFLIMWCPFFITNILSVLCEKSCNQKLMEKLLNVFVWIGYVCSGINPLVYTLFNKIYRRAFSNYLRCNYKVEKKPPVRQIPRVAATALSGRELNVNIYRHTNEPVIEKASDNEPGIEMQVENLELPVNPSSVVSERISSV
Particulars: cited from earlier work.

The target of series [6] is T1, 5-HT2cR. Particulars: in vitro and in vivo; cited from earlier work.
The test system of series [7] is Erk. Particulars: cited from earlier work.
In series [8] the test system is PC3 cells. As to the kind of experiment: Growth inhibition under serum starvation, PC3. It is filed as cell-based, human. To be noted: PC3, serum starvation vs serum.
From the text: as §1, §2

The test system of series [9] is MBII-52. Particulars: C2G cells, serum starvation 72 h, DHT supplementation. The text has this: Serum starvation induces NED of PCa cell lines (25). […] Furthermore, NED is associated with CR-PCa in vivo, supporting the importance of factors that induce NED as initiators of transition to androgen-independence (26).
Series [10] relates to DU145 clones DU6 and DU2. Description: Cell viability of DU145 HBII-52 clones in response to 5-HT. Format: cell-based, human. To be noted: high concentrations; HBII-52 overexpressing DU6 compared to low expressing DU2; 3 independent experiments. An excerpt:
FIG. 17. Overexpression of HBII-52 affects cell viability in response to 5-HT treatment. […] Data are represented as the average+/−SEM of 3 independent experiments

Results on three compounds are retold here after patent publication US10487362B2, “Methods for diagnosing cancer based on small nucleolar RNA HBII-52” (Health Research, Inc., priority 2013, dated 2019).

Entries after “also recorded” stand apart in the source; their conditions may differ.

As to `Cc1cc2c(cc1Cl)N(C(=O)Nc1ccc(Oc3cccnc3C)nc1)CC2` [SB 242,084], in series [1], the “resistance to metabolic methylation” value is reported as “more resistant to the metabolic methylation than SB206,553”. Besides, the “growth inhibition upon serum starvation” value in [2] is “significantly (p<0.05) further improved”. For the same compound, the “cell viability / growth inhibition” value in series [3] is reported as “dose-dependent decrease in cell viability levels; also recorded: growth-inhibitory”. Further, in series [4] (scramble and MBII-52 overexpressing TRAMP-C2G cells, n=5), the cell viability result is “inhibits; also recorded: effective in both scramble and MBII-52 overexpressing cells”. In series [5], the “potency relative to SB 206,553” value is “increased potency”, the “selectivity for 5-HT2cR over 5-HT2aR” value is listed as “greater than 100 fold” and the “selectivity for 5-HT2cR over 5-HT2bR” value is reported as “greater than 100 fold”. Moreover, the antagonist activity entry in series [6] was “potent antagonist activity”. Also, the “activation of downstream targets including Erk” value in series [7] was “inhibits activation”. Besides, the “growth inhibition upon serum starvation” value in series [8] is given as “significantly (p<0.05) further improved”.
Turning to `C[C@]12CCC(=O)C[C@@H]1CC[C@@H]1[C@@H]2CC[C@]2(C)[C@@H](O)CC[C@@H]12` [DHT, 5α-dihydrotestosterone], in series [9], the “MBII-52 expression increase caused by serum starvation” value is “almost completely block the increase in MBII-52; also recorded: abrogates the observed upregulation of MBII-52”. In addition, the “influence on the effect of MBII-52 or SB 242,084 on cell viability” value in series [4] is “Neither DHT nor 5-HT appear to have much influence”.
Turning to `NCCc1c[nH]c2ccc(O)cc12` [5-HT, serotonin], the “cytotoxic response (cell viability)” value in series [10] is “increased cytotoxic response”. In addition, in [4], the “influence on the effect of MBII-52 or SB 242,084 on cell viability” value is on record as “Neither DHT nor 5-HT appear to have much influence”.
